Among the data in ChEMBL document CHEMBL1201862, “PubChem BioAssay data set” (2004) are AC50, EC50 and IC50 values, retold here.

Assay [1] addresses T1, DNA repair and recombination protein RAD54-like (Homo sapiens, UniProt Q92698).
T1 sequence (Q92698 whole entry): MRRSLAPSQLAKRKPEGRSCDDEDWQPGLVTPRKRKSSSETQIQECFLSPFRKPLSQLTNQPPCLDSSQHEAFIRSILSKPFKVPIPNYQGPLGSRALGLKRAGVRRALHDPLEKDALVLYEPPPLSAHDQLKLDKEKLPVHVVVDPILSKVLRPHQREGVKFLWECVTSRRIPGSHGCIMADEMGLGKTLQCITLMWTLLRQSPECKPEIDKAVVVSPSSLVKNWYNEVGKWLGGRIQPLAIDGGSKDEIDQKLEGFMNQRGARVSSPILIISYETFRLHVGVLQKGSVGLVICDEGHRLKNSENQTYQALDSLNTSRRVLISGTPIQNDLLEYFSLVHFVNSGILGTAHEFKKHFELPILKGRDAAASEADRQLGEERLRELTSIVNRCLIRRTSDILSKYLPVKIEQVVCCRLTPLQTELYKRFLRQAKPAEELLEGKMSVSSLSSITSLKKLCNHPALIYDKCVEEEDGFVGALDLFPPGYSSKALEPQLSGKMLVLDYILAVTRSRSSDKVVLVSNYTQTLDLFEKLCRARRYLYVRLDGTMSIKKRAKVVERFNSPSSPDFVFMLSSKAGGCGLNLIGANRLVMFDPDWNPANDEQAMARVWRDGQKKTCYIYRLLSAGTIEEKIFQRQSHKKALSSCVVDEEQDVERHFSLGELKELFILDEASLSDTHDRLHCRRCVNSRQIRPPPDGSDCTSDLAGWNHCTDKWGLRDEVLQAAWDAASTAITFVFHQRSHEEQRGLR
In words: RAD54 Holliday junction migration blockers – biochemical, fluorescence, cherry-picked samples, dose series, confirmation (AID 651657). In kind it is functional.

The nature of assay [2]: Trypanosoma cruzi growth suppression in host cells – NIH3T3 host cells, beta-gal luminescence, confirmation (AID 2044).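 Also: intracellular parasites grown in NIH/3T3 mouse fibroblasts as host cells; luminescent beta-galactosidase reporter signal from transgenic T. cruzi replicating inside host cells; inhibitors lower the luminescence signal.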 In kind it is functional, cell-based.
The nature of assay [3]: NIH3T3 cell viability loss – ATP luminescence, mouse fibroblasts, counter-screen, dose response (AID 2010).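 Also: cells exposed to compound for about 90 hours before reading.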 The class given is functional, cell-based.
Assay [4] has as its system HEK293. Put plainly: inhibition of NOD1-driven NF-kB reporter – cell-based, luminescence, uHTS, primary screen (AID 1578). The note with it: Homo sapiens. In kind it is functional.
Assay [5] relates to HEK293. Put plainly: cells. The class given is functional, cell-based. The note with it: Homo sapiens.
Assay [6] concerns the target Photoreceptor-specific nuclear receptor (Homo sapiens, UniProt Q9Y5X4). The class given is functional, cell-based.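 Also: CHO-S cells with Gal4-NCOR and VP16-NR2E3 two-hybrid luciferase reporter.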
The test system of assay [7] is HEK293. In words: cells. The class given is functional, cell-based. The note with it: Homo sapiens. This is another data set of the same source.
Assay [8] relates to HEK293. In words: NOD2 signaling inhibitors in MDP-stimulated cells, cell-based, uHTS, luminescence (AID 2001). In kind it is functional. The note with it: Homo sapiens.
Assay [9] addresses Nucleotide-binding oligomerization domain-containing protein 2 (Homo sapiens, UniProt Q9HC29). In words: inhibition of NOD2-driven NF-kB reporter – cell-based, luminescence, uHTS, HEK293 (AID 1566). The class given is functional.
Assay [10] has as its system HEK293. In words: cells. The class given is functional, cell-based. The note with it: Homo sapiens. This is another data set of the same source.
Assay [11] concerns BJ. In words: cells. In kind it is functional, cell-based. The note with it: Homo sapiens.
Assay [12] concerns BJ. Put plainly: BJ-TERT fibroblast viability loss – cell-based, RAS-independent, luminescence, dose response (AID 1933). In kind it is functional. The note with it: Homo sapiens.
Assay [13] is described as follows: DRD fibroblast viability loss – cell-based, non-viral oncogenic, luminescence, dose response (AID 1934). The note with it: Homo sapiens. The class given is functional.
Assay [14] has as its target DNA (cytosine-5)-methyltransferase 1 (Homo sapiens, UniProt P26358). In words: inhibition of DNA methylation by DNMT1 – biochemical, fluorescent molecular beacon, confirmation (AID 602386). The class given is functional.
In assay [15] the test system is BJ. Put plainly: BJ-TERT-LT-ST fibroblast viability loss – cell-based, RAS-independent, luminescence, dose response (AID 1935).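 Also: BJ fibroblasts immortalized with TERT plus LT and ST oncogenes.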 The class given is functional. The note with it: Homo sapiens.

One may read the AC50 as the concentration at which the activity in the assay is half-maximal. Broadly, the EC50 is the concentration needed to bring the measured effect to its halfway point. What is called IC50 is the concentration needed to halve the response being measured.

Calls of active or inactive are those of the source.

Sequence of DNA (cytosine-5)-methyltransferase 1 (P26358 whole entry): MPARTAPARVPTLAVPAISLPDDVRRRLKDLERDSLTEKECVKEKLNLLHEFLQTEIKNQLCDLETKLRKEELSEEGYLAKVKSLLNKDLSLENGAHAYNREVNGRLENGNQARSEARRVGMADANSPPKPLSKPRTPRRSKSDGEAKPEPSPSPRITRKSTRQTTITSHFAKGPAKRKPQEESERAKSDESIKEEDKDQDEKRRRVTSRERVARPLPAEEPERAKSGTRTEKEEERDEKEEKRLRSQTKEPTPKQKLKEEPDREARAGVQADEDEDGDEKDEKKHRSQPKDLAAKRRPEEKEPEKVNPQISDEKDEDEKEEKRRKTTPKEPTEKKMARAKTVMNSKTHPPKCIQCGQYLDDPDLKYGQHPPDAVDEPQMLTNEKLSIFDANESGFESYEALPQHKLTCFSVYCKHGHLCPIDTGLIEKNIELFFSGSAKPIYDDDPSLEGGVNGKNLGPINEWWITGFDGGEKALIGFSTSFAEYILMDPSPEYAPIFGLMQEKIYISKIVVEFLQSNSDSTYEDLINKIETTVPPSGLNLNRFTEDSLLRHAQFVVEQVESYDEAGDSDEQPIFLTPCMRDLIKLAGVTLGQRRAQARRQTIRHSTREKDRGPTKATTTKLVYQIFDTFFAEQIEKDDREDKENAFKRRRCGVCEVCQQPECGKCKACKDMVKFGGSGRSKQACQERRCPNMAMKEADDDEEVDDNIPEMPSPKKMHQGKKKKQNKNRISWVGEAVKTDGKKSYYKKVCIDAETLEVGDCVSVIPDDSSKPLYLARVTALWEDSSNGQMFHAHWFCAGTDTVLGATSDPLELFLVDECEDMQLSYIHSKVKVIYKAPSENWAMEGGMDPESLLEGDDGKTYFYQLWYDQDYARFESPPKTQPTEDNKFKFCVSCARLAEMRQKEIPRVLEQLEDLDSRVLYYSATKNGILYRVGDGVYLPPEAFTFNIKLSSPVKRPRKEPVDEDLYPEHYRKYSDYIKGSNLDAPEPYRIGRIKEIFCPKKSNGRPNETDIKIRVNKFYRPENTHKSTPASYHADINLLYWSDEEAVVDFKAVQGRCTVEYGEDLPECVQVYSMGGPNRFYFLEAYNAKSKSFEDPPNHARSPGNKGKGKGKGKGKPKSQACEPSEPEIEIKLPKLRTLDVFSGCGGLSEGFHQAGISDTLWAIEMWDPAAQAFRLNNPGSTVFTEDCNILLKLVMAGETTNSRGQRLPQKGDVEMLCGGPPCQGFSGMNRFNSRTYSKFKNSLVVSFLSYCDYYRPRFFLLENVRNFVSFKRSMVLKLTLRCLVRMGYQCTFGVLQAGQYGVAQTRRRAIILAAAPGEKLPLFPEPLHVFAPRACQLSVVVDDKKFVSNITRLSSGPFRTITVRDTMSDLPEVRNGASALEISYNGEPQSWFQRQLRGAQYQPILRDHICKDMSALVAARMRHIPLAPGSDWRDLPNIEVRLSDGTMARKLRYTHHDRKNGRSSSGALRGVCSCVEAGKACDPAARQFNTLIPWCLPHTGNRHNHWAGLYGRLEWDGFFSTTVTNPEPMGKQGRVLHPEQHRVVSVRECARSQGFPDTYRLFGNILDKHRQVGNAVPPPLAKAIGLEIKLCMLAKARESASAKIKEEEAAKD
Sequence of Photoreceptor-specific nuclear receptor (Q9Y5X4 whole entry, the tested form may be a part): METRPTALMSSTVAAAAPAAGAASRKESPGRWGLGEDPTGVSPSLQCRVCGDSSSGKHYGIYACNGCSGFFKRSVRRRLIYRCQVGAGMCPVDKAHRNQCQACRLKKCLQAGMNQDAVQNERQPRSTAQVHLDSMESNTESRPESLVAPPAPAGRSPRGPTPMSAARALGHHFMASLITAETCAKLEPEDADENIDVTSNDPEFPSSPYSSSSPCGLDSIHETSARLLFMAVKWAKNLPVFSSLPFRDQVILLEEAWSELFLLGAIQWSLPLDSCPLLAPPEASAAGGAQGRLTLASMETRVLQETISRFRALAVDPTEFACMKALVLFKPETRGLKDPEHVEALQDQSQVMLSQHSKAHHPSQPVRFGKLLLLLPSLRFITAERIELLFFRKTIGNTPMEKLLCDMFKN
Sequence of Nucleotide-binding oligomerization domain-containing protein 2 (Q9HC29 whole entry, the tested form may be a part): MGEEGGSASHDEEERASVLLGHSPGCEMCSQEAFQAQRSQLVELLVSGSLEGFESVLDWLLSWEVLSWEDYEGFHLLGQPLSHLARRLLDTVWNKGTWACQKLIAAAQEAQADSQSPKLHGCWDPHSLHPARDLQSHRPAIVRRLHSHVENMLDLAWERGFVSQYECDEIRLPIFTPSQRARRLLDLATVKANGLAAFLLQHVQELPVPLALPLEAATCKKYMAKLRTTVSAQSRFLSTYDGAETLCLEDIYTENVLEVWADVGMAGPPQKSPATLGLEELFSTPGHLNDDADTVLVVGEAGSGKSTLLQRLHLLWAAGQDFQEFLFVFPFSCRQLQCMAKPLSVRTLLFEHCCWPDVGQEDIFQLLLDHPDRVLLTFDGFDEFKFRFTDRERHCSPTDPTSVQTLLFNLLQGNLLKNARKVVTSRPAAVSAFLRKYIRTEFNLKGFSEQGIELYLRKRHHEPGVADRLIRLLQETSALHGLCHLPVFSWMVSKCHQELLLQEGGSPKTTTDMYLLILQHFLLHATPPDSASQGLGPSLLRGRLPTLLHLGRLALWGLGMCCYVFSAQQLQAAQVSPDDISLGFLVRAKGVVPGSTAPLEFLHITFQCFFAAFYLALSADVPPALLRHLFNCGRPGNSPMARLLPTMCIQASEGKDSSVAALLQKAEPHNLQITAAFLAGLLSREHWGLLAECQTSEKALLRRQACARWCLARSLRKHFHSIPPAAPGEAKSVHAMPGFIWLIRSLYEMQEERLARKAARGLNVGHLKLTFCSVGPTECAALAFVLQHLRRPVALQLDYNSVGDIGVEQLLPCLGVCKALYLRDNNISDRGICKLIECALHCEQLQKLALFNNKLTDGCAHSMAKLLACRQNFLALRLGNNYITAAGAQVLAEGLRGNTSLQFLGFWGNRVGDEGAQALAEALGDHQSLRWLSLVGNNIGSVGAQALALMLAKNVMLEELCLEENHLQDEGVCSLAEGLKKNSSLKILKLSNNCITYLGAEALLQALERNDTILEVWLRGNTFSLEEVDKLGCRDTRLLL

In the case of `COc1ccc2nc(C)cc(Nc3ccc(N4CCOCC4)cc3)c2c1`, the AC50 in assay [1] was 17.4 µM (active). Further, the EC50 is 1.79 µM (active) in assay [2] and 27 µM (active) in [3].

With `C=CCn1c(C)cc(C(=O)COc2ccc(C)nc2[N+](=O)[O-])c1C`, the EC50 is > 20 µM (inactive) in the assay with HEK293 [4] and 6.96 µM (active) in [9]. For the same compound, the IC50 in the assay on HEK293 [5] is > 20 µM (inactive); in [6], 4.69 µM (active); in the assay on HEK293 [7] it was 5.78 µM (active); with HEK293 [8] it was > 20 µM (inactive); in the assay on HEK293 [10] it was > 20 µM (inactive).

Consider `Cc1cc[n+](CC(=O)c2cccc([N+](=O)[O-])c2)c2ccccc12`, for which the EC50 in the assay with BJ [11] is > 150 µM (not active); in the assay with BJ [12] it was 25.1 µM (active); in [13], > 150 µM (not active); in the assay on BJ [15], > 150 µM (inconclusive). For the same compound, the IC50 in [14] was > 99 µM (inactive).

For `CCCN1CCN(CCCNC(=O)c2cc3c(=O)n(C)c4ccccc4c3n2C)CC1`, the AC50 in assay [1] is 34.7 µM (active).

As for `O=C(c1ccc(=O)oc1)N1CCOCC1`, in assay [14], the IC50 is 3.67 µM (active).

For the compound `CN1CCC(N(C)c2nc(-c3ccccc3)nc3ccccc23)CC1`, in assay [1], the AC50 was 18.1 µM (active).
